Measured values from ChEMBL document CHEMBL4431326, “Tumor Targeting with Novel 6-Substituted Pyrrolo [2,3-d] Pyrimidine Antifolates with Heteroatom Bridge Substitutions via Cellular Uptake by Folate Receptor α and the Proton-Coupled Folate Transporter and Inhibition of de Novo Purine Nucleotide Biosynthesis” (J Med Chem, 2016).
Activity calls are given as the source filed them. The rule behind the calls is not given here.

Legend:
[1] = molecular target: Folate receptor alpha (Homo sapiens) (UniProt P15328); assay: Displacement of [3H]folic acid from human FR-alpha receptor expressed in Chinese hamster RT16 cells measured after 15 mins relative to folic acid; assay type: cell-based; parameters: concentration or dose not given beside the values
Folate receptor alpha (Homo sapiens), sequence (P15328 25-234 limits assumed): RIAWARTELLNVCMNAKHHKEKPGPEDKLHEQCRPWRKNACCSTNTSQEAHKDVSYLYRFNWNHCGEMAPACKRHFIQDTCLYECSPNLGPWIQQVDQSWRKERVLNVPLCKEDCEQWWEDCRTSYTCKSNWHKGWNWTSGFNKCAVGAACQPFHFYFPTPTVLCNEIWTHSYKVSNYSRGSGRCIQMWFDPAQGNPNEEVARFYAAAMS

[2] = molecular target: T1, Proton-coupled folate transporter (Homo sapiens) (UniProt Q96NT5); assay: Inhibition of [3H]MTX uptake at human PCFT expressed in Chinese hamster R2/PCFT4 cells at 10 uM and pH 5.5 measured after 5 mins; assay type: cell-based
T1 sequence (whole entry): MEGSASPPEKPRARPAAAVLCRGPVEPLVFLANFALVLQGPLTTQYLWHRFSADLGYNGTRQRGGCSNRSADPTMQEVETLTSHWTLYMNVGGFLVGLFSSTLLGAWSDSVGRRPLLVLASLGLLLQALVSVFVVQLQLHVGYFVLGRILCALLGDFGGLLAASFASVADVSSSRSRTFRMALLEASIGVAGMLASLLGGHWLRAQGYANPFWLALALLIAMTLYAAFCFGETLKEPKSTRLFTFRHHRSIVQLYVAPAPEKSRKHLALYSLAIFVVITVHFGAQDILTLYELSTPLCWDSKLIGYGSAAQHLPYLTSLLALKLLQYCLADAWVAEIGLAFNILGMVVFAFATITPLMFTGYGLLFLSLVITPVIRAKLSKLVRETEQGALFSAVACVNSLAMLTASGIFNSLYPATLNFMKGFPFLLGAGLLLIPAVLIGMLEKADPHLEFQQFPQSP

[3] = molecular target: Bifunctional purine biosynthesis protein ATIC (Homo sapiens) (UniProt P31939); assay: Inhibition of AICARFTase in human KB cells expressing RFC/FR-alpha/PCFT assessed as cell growth inhibition measured after 96 hrs in presence of 320 uM AICA by Cell-Titer Blue fluorescence analysis; assay type: cell-based
Bifunctional purine biosynthesis protein ATIC (Homo sapiens), sequence (P31939 whole entry, looked up): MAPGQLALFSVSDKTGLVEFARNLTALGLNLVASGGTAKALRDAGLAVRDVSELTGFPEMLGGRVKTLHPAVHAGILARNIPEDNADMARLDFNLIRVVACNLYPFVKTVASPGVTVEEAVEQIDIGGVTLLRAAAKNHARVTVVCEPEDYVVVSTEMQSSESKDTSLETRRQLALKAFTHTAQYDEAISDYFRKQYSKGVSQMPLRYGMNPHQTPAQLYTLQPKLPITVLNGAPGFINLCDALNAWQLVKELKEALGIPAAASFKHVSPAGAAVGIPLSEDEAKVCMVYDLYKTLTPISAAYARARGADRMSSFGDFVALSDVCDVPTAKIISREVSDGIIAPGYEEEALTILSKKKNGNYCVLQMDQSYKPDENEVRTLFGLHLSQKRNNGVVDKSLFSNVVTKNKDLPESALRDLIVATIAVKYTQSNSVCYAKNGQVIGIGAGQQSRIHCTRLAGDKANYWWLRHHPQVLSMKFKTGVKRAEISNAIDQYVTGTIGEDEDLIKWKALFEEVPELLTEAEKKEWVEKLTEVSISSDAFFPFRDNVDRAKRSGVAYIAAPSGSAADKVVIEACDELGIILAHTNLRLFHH

[4] = molecular target: T2, Proton-coupled folate transporter (Homo sapiens, UniProt Q96NT5); assay: Inhibition of [3H]MTX uptake at human PCFT expressed in Chinese hamster R2/PCFT4 cells at pH 5.5 measured after 5 mins by Dixon plot analysis; assay type: cell-based
T2 sequence (Q96NT5 whole entry): T1 sequence (whole entry)

[5] = molecular target: T1, Proton-coupled folate transporter (Homo sapiens); assay: Inhibition of [3H]MTX uptake at human PCFT expressed in Chinese hamster R2/PCFT4 cells at 1 uM and pH 5.5 measured after 5 mins; assay type: cell-based
[6] = Cytotoxicity in RFC-null Chinese hamster R2 cells assessed as reduction in cell viability measured after 96 hrs by Cell-Titer Blue fluorescence analysis; assay type: cell-based; details: Cricetulus griseus, R2, 96 h
[7] = test system: KB; assay: Antiproliferative activity against human KB cells expressing human RFC/FR-alpha/PCFT assessed as reduction in cell viability measured after 96 hrs by Cell-Titer Blue fluorescence analysis; assay type: functional, cell-based
[8] = molecular target: Folate receptor beta (Homo sapiens) (UniProt P14207); assay: Displacement of [3H]folic acid from human FR-beta receptor expressed in Chinese hamster D4 cells measured after 15 mins relative to folic acid; assay type: cell-based
Folate receptor beta (Homo sapiens), sequence (P14207 17-230 limits assumed): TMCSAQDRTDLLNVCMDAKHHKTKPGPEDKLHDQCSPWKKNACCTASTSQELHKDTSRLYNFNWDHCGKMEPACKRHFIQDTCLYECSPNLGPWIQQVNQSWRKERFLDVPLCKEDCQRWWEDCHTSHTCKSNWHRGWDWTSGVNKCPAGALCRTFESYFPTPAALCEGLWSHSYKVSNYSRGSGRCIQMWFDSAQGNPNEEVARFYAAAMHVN

[9] = molecular target: T3, GAR transformylase/AICAR transformylase (Homo sapiens) (UniProt P31939+P22102); assay: Inhibition of GARFTase/AICARFTase in human KB cells expressing RFC/FR-alpha/PCFT assessed as cell growth inhibition measured after 96 hrs in presence of 10 uM thymidine by Cell-Titer Blue fluorescence analysis; assay type: cell-based
T3 sequence (P31939 whole entry, looked up, one chain of several): as the sequence (P31939 whole entry, looked up) above

[10] = Cytotoxicity in PCFT-null Chinese hamster R2 cells assessed as reduction in cell viability measured after 96 hrs by Cell-Titer Blue fluorescence analysis; assay type: cell-based; details: Cricetulus griseus, R2, 96 h
[11] = molecular target: T4, Trifunctional purine biosynthetic protein adenosine-3 (Homo sapiens, UniProt P22102); assay: Inhibition of recombinant N-terminal 6His-tagged human GARFTase assessed as formation of 5,8-dideazafolate from 10-formyl-5,8-dideazafolic acid measured at every 15 seconds over 20 min by spectrophotometric analysis
T4 sequence (P22102 whole entry): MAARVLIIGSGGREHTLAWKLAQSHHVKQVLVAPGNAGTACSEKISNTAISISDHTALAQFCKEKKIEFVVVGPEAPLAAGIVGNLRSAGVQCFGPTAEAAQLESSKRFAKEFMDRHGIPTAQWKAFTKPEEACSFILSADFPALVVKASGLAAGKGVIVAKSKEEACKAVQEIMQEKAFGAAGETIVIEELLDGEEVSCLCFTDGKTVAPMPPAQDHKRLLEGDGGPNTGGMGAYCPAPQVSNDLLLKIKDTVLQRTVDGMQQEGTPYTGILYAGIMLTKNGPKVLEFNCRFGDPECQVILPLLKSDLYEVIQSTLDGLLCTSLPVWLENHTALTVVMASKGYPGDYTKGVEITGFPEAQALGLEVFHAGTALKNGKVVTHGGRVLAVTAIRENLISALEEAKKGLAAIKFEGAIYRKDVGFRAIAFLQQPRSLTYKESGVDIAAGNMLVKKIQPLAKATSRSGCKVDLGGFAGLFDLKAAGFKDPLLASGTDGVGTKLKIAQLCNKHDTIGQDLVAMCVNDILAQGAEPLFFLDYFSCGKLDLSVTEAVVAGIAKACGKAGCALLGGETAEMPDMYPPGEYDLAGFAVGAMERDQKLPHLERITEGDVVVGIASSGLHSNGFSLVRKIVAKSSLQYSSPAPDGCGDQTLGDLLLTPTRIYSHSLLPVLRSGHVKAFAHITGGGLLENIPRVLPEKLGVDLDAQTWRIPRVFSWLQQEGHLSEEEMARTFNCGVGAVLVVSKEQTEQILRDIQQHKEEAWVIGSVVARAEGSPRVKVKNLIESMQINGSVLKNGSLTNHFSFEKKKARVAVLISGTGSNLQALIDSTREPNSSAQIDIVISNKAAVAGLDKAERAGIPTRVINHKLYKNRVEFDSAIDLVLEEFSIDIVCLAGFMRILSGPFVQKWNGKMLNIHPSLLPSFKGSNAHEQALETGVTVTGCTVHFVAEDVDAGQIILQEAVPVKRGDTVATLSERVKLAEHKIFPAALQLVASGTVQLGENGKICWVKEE

[12] = molecular target: T1, Proton-coupled folate transporter (Homo sapiens); assay: Inhibition of [3H]MTX uptake at human PCFT expressed in Chinese hamster R2/PCFT4 cells at 10 uM and pH 6.8 measured after 5 mins; assay type: cell-based
[13] = molecular target: T3, GAR transformylase/AICAR transformylase (Homo sapiens); assay: Inhibition of GARFTase/AICARFTase in human KB cells expressing RFC/FR-alpha/PCFT assessed as cell growth inhibition measured after 96 hrs in presence of 60 uM adenosine by Cell-Titer Blue fluorescence analysis; assay type: cell-based
[14] = test system: KB; assay: Antiproliferative activity against human KB cells expressing human RFC/FR-alpha/PCFT assessed as reduction in cell viability measured after 96 hrs in presence of folic acid by Cell-Titer Blue fluorescence analysis; assay type: functional, cell-based
[15] = molecular target: T4, Trifunctional purine biosynthetic protein adenosine-3; assay: Inhibition of GARFTase in human KB cells expressing RFC/FR-alpha/PCFT assessed as decrease in incorporation of [14C(U)]-glycine into [14C]formyl GAR incubated for 1 hr followed by addition of [14C(U)]-glycine measured after 16 hrs in presence of azaserine; assay type: cell-based
[16] = test system: IGROV-1; assay: Antiproliferative activity against human IGROV1 cells expressing human FR-alpha/PCFT assessed as reduction in cell viability measured after 96 hrs in presence of folic acid by Cell-Titer Blue fluorescence analysis; assay type: functional, cell-based; details: IGROV-1, 96 h

| inhibition [1] | inhibition [2] | inhibition [3] | Ki [4] | inhibition [5] | IC50 [7] | inhibition [8] | inhibition [9] | Ki [11] | inhibition [12] | inhibition [13] | IC50 [14] | IC50 [15] | SMILES | IC50 [6] | IC50 [10] | IC50 [16] |
| --- | --- | --- | --- | --- | --- | --- | --- | --- | --- | --- | --- | --- | --- | --- | --- | --- |
| 60 to 110% | 80 to 90% | Active | 1480 nM | 30 to 60% | 1.66 nM | 60 to 110% | Active | 201 nM | Active | inactive | > 1000 nM | 5.25 nM | Nc1nc2[nH]c(CCSc3ccc(C(=O)N[C@@H](CCC(=O)O)C(=O)O)cc3)cc2c(=O)[nH]1 | > 1000 nM | > 1000 nM |  |
|  | Active |  | 220 nM | Active |  |  |  |  | 40 to 60% |  |  |  | Nc1nc2[nH]c(CCCc3ccc(C(=O)N[C@@H](CCC(=O)O)C(=O)O)cc3)cc2c(=O)[nH]1 |  |  | > 1000 nM |
| < 15% | 80 to 90% | Active | 730 nM | 30 to 60% | 2.09 nM |  | Active | 99 nM | Active | inactive | > 1000 nM | 2.11 nM | Nc1nc2[nH]c(CCN(C=O)c3ccc(C(=O)N[C@@H](CCC(=O)O)C(=O)O)cc3)cc2c(=O)[nH]1 | > 1000 nM | > 1000 nM |  |
| 60 to 110% | 80 to 90% | Active | 640 nM | 30 to 60% | 0.34 nM | 60 to 110% | Active | 61 nM | 40 to 60% | inactive | 704 nM | 6.62 nM | Nc1nc2[nH]c(CCOc3ccc(C(=O)N[C@@H](CCC(=O)O)C(=O)O)cc3)cc2c(=O)[nH]1 | 940 nM | > 1000 nM |  |
